The text below walks through data of ChEMBL document CHEMBL1201862, “PubChem BioAssay data set” (2004).

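Assay format: 96-well plates, 48-hour exposure. At the GI50, growth is halved.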 Active and inactive are the calls of the source. No stated cut-off is given here; in the data, active = GI50 up to about 1.1 µM and inactive = higher. A value given as a limit tells only on which side of the number the result lay.

Test systems include NCI-H522; SK-MEL-28; CAKI-1; SK-OV-3; EKVX; A498; NCI-H226; NCI/ADR-RES; SF-295; UACC-257; HT-29; HL-60; HCC 2998; HCT-15; ACHN; BT-549; SW-620; K562; MDA-N.
Holding throughout (test): growth of human tumour cells (NCI), 48 h

For the molecule `N=C(N)Nc1ccc(CC(N)C(=O)NCC(=O)C(CC(=O)O)c2ncc(NC(=O)C(F)(F)F)o2)cc1` (configuration not stated), the GI50 in the assay on NCI-H522, with SK-MEL-28, with CAKI-1, in the assay with SK-OV-3, in the assay on EKVX and with A498 was > 25 µM (inactive) each time. Besides, the GI50 in the assay with NCI-H226, with NCI/ADR-RES, in the assay on SF-295, in the assay with UACC-257, with HT-29 and in the assay on HL-60 was > 25 µM (inactive) in each case. For the same molecule, the GI50 in the assay on HCC 2998 is > 25 µM (inactive); in the assay with HCT-15 it was more than 25 µM; with ACHN, > 25 µM (inactive); in the assay with BT-549, > 25 µM (inactive); with SW-620 it was > 25 µM (inactive).
As to `CN1CCN(C(=S)N(C(=O)c2ccc(Cl)cc2)c2ccccc2)CC1`, the GI50 with NCI-H522, in the assay on SK-MEL-28, with K562, in the assay with MDA-N, in the assay with NCI-H226 and in the assay on SF-295 was > 100 µM (inactive) in each case. In addition, the GI50 was > 100 µM (inactive) in the assay on UACC-257; > 100 µM (inactive) in the assay with HT-29; > 100 µM (inactive) in the assay with HL-60; > 100 µM (inactive) with HCC 2998; more than 100 µM with HCT-15; > 100 µM (inactive) in the assay with ACHN. The GI50 with BT-549 and in the assay with SW-620 was > 100 µM (inactive) throughout.
For the molecule `Cc1c(N2C(=O)C(Cl)C2c2ccc(Cl)cc2)c(=O)n(-c2ccccc2)n1C` (configuration not stated), the GI50 is 46.3 µM (inactive) in the assay with NCI-H522; > 100 µM (inactive) in the assay with CAKI-1; > 100 µM (inactive) in the assay with SK-OV-3; 71 µM (inactive) with EKVX; 45.5 µM (inactive) with K562; 30 µM (inactive) in the assay on MDA-N. The GI50 is > 100 µM (inactive) in the assay with NCI-H226; > 100 µM (inactive) in the assay on NCI/ADR-RES; > 100 µM (inactive) with SF-295; 14.2 µM (inactive) in the assay on UACC-257; > 100 µM (inactive) in the assay on HT-29; > 100 µM (inactive) in the assay on HL-60. Besides, the GI50 was 23.7 µM (inactive) with ACHN, > 100 µM (inactive) with BT-549 and 60.8 µM (inactive) with SW-620.
Consider `Nc1nc(Nc2cc(F)c(Cl)c(F)c2)cc(=O)[nH]1`, for which the GI50 with NCI-H522 is 28.4 µM (inactive); in the assay with SK-MEL-28, > 100 µM (inactive); in the assay on CAKI-1, > 100 µM (inactive); with SK-OV-3, 68.1 µM (inactive); in the assay on EKVX, 61.1 µM (inactive); with A498, 94.8 µM (inactive). For the same molecule, the GI50 in the assay on NCI-H226 was > 100 µM (inactive); in the assay on NCI/ADR-RES, > 100 µM (inactive); with SF-295, 44.9 µM (inactive); with UACC-257 it was > 100 µM (inactive); with HT-29 it was > 100 µM (inactive); in the assay with HL-60, 44.3 µM (inactive). Also, the GI50 in the assay on HCC 2998 was 15.9 µM (inactive); with HCT-15, more than 100 µM; in the assay with ACHN it was 84.7 µM (inactive); with BT-549, 60.3 µM (inactive); in the assay on SW-620, 91 µM (inactive).
Turning to `[N-]=[N+]=CC(=O)OCC1SCCCS1`, the GI50 in the assay with NCI-H522 was > 100 µM (inactive); with SK-MEL-28, > 100 µM (inactive); in the assay with CAKI-1 it was 50.4 µM (inactive); in the assay with SK-OV-3 it was > 100 µM (inactive); in the assay with EKVX, > 100 µM (inactive); in the assay with K562, > 100 µM (inactive). In addition, the GI50 in the assay on A498, with MDA-N, in the assay with NCI-H226, in the assay on SF-295, in the assay on UACC-257 and in the assay with HT-29 was > 100 µM (inactive) in each case. Also, the GI50 with HL-60 was > 100 µM (inactive); in the assay with HCC 2998, > 100 µM (inactive); in the assay with HCT-15 it was more than 100 µM; in the assay with ACHN it was 78.9 µM (inactive); with BT-549, > 100 µM (inactive); in the assay on SW-620, > 100 µM (inactive).
In the case of `O=C(/N=N/c1ccccc1Br)NNc1ccccc1Br`, the GI50 in the assay on NCI-H522 is 40.6 µM (inactive); in the assay with SK-MEL-28 it was 53.7 µM (inactive); with CAKI-1, 33 µM (inactive); in the assay with K562, 27.3 µM (inactive); with A498, 58.7 µM (inactive); in the assay on MDA-N it was 55.8 µM (inactive). Further, the GI50 in the assay with NCI-H226 is > 100 µM (inactive); in the assay with UACC-257, > 100 µM (inactive); in the assay on HT-29 it was > 100 µM (inactive); in the assay on HL-60 it was 23.6 µM (inactive); in the assay with HCC 2998, 22.5 µM (inactive); in the assay on HCT-15, 61.2 µM. For the same molecule, the GI50 in the assay on ACHN is 46.1 µM (inactive); with BT-549, 82.8 µM (inactive); with SW-620, 67.1 µM (inactive).
For `Cc1cc2nc3c(C#N)c4c(c(Nc5ccc(F)cc5)n3c2cc1C)CCC4`, the GI50 is 95.5 µM (inactive) with NCI-H522; > 100 µM (inactive) with SK-MEL-28; > 100 µM (inactive) in the assay with CAKI-1; > 100 µM (inactive) in the assay on SK-OV-3; > 100 µM (inactive) in the assay with EKVX; > 100 µM (inactive) in the assay with K562. In addition, the GI50 in the assay on MDA-N, with NCI-H226, in the assay on NCI/ADR-RES, in the assay on SF-295, with UACC-257 and in the assay on HT-29 was > 100 µM (inactive) throughout. The GI50 with HL-60 was > 100 µM (inactive); in the assay on HCT-15, more than 100 µM; with ACHN, > 100 µM (inactive); in the assay with BT-549, > 100 µM (inactive); in the assay with SW-620, > 100 µM (inactive).
Turning to `O=C1C[C@H](c2ccccc2)O[C@@H](c2ccccc2)C1`, the GI50 with SK-MEL-28 was > 100 µM (inactive); in the assay with CAKI-1 it was > 100 µM (inactive); in the assay with SK-OV-3, > 100 µM (inactive); with EKVX it was > 100 µM (inactive); in the assay on K562 it was 26.9 µM (inactive); in the assay with MDA-N it was > 100 µM (inactive). Besides, the GI50 with NCI-H226, in the assay with NCI/ADR-RES, with SF-295, in the assay on UACC-257, in the assay with HT-29 and with HCC 2998 was > 100 µM (inactive) throughout. Besides, the results for the GI50 in the assay with HCT-15, in the assay with BT-549 and with SW-620 were more than 100 µM, > 100 µM (inactive) and > 100 µM (inactive), respectively.
On to `O=C1NC(c2ccc3ccccc3c2)Nc2ccccc21` (configuration not stated), for which the GI50 was > 100 µM (inactive) in the assay with SK-MEL-28; 59.7 µM (inactive) in the assay on CAKI-1; 53.5 µM (inactive) with SK-OV-3; 45.6 µM (inactive) in the assay with EKVX; 2.54 µM (inactive) with K562; 56 µM (inactive) with A498. Besides, the GI50 is 32.1 µM (inactive) in the assay on NCI-H226; 62.4 µM (inactive) in the assay on NCI/ADR-RES; 35.3 µM (inactive) with SF-295; 57.9 µM (inactive) with UACC-257; 24.8 µM (inactive) in the assay with HT-29; 15.2 µM (inactive) in the assay with HL-60. Also, the GI50 was 51.9 µM (inactive) in the assay with HCC 2998; 14.8 µM with HCT-15; 48.1 µM (inactive) in the assay on ACHN; 5.26 µM (inactive) with BT-549; 43.8 µM (inactive) in the assay with SW-620.
Take `COc1cc(C2CC(C)(N3CCOCC3)Oc3cc4c(cc32)OCO4)cc(OC)c1OC` (configuration not stated): the GI50 in the assay with NCI-H522 was 0.226 µM (active); in the assay on CAKI-1 it was 0.177 µM (active); with SK-OV-3, 0.482 µM (active); in the assay with K562 it was 0.026 µM (active); in the assay on MDA-N it was 0.0452 µM (active); in the assay with NCI-H226, 5.35 µM (inactive). The GI50 in the assay on NCI/ADR-RES was 0.2 µM (active); with SF-295, 0.104 µM (active); in the assay on UACC-257, > 50.1 µM (inactive); with HT-29, 0.131 µM (active); in the assay with HL-60, 0.0228 µM (active); in the assay on HCC 2998, 0.427 µM (active). For the same molecule, the GI50 was 0.136 µM in the assay on HCT-15, 0.243 µM (active) in the assay on ACHN, > 100 µM (inactive) in the assay with BT-549 and 0.136 µM (active) with SW-620.
As to `Cc1cc(C)nc(NS(=O)(=O)c2ccc(Nc3nnc(/C=C/c4c(O)ccc5ccccc45)c(=O)n3N)cc2)n1`, the GI50 with CAKI-1 was 22.1 µM (inactive); in the assay on SK-OV-3, 51.4 µM (inactive); with EKVX it was 38.4 µM (inactive); in the assay with K562, 27.6 µM (inactive); in the assay with MDA-N it was 25.6 µM (inactive); with NCI/ADR-RES, 20 µM (inactive). For the same molecule, the GI50 was 61.1 µM (inactive) with SF-295; 57.8 µM (inactive) in the assay with HT-29; 22.1 µM (inactive) in the assay on HL-60; 10.9 µM with HCT-15; 23 µM (inactive) in the assay with ACHN; 32.7 µM (inactive) in the assay with BT-549. In addition, the GI50 in the assay on SW-620 was 43.9 µM (inactive).
Take `OCC(O)COCn1cc(Cn2ncc3c(SCc4ccccc4)ncnc32)nn1` (configuration not stated): the GI50 in the assay with NCI-H522 was 27.2 µM (inactive); in the assay with SK-MEL-28, > 100 µM (inactive); with CAKI-1, > 100 µM (inactive); with SK-OV-3, > 100 µM (inactive); in the assay on EKVX, > 100 µM (inactive); in the assay on K562 it was > 100 µM (inactive). Besides, the GI50 with A498, in the assay with NCI-H226, in the assay with NCI/ADR-RES, in the assay with SF-295, with UACC-257 and in the assay with HT-29 was > 100 µM (inactive) each time. For the same molecule, the GI50 was > 100 µM (inactive) in the assay on HL-60; > 100 µM (inactive) in the assay with HCC 2998; more than 100 µM in the assay with HCT-15; > 100 µM (inactive) with ACHN; > 100 µM (inactive) in the assay on BT-549; > 100 µM (inactive) in the assay with SW-620.
